The values below come from patent publication US10457710B2, “Antimicrobial peptides, their variants and uses” (priority 2015, dated 2019).

The subject of experiment [1] is clinical strains of bacteria and yeasts. Nature of the experiment: MIC, all clinical bacteria and yeasts tested together. In kind it is cell-based. Particulars: bacterial strains other than E. coli. Here is the method: Minimum inhibition concetrations (MICs) were determined against Escherichia coli (ATCC 25922), Staphylococcus aureus (ATCC 25923), Klebsiella pneumoniae (ATCC 10031) and Pseudomonas aeruginosa (ATCC 27853). Also clinical strains of E. coli, K. pneumoniae, E. cloacae, P. aeruginosa, Serratia marcescens, Proteus mirabilis, S. pneumoniae, Acinetobacter baumannii, A. johnsonii and S. aureus were used for MICs assays. Additionally, clinical strains of yeast including Candida albicans, C. glabrata, C. parapsilosis and C. quillermondiae were used. The susceptibility of these microorganisms to Chain peptides were determined using micro broth dilution assay. Colonies of the respective microorganism from Muller Hinton (MH) agar plates incubated overnight were suspended in MH broth media and final concentration of microorganism was adjusted to 5.0×10^5 cfu/ml. An aliquot of 10 μl of each Chain peptide, or gentamicin, tetracycline as reference antibiotics were added in differing concentrations along with 90 μl of bacterial suspension to 96 well polypropylene plates and incubated at 37° C. for 20 to 24 hours. Concentrations of Chain peptides and reference antibiotics ranged from 0.125 to 128 μg/ml and the MICs were recorded as the lowest concentration with no visual growth of bacteria. Similarly, antifungal MICs were tested in Potato dextrose broth. […]

The test system of the next experiment is MRSA strains. Nature of the experiment: MIC, synergistic activity with Ertapenem (4 μg/ml). In kind it is cell-based, S. aureus. Particulars: Ertapenem 4 μg/ml; D-peptide. Here is the method:
Peptides Chain 104, Chain 105, Chain 201, Chain 308, Chain 310 were tested against antibiotic-sensitive strains of S. aureus RN4220 and methicillin resistant strains of S. aureus COL (MRSA). Chain peptides comprising of either L- or D-form amino acids were tested against these bacteria, and the D-form peptides were found have better activity compared to L-form (Table 6). Synergistic activity of chain peptides along with Ertapenem (4 μg/ml) was tested to know whether it will influence the activity against MRSA strains. […] Chain 310 has the best antibacterial activity against the MRSA strains with a MIC of 0.06 & 0.03 μg/ml along with Ertapenem (4 μg/ml) for both forms of L and D-peptides (Table 6).

In experiment [2] the test system is Escherichia coli (ATCC 25922). Nature of the experiment: MIC, micro broth dilution assay. It counts as cell-based. Here is the method:
(§1) Minimum inhibition concetrations (MICs) were determined against Escherichia coli (ATCC 25922), Staphylococcus aureus (ATCC 25923), Klebsiella pneumoniae (ATCC 10031) and Pseudomonas aeruginosa (ATCC 27853). Also clinical strains of E. coli, K. pneumoniae, E. cloacae, P. aeruginosa, Serratia marcescens, Proteus mirabilis, S. pneumoniae, Acinetobacter baumannii, A. johnsonii and S. aureus were used for MICs assays. Additionally, clinical strains of yeast including Candida albicans, C. glabrata, C. parapsilosis and C. quillermondiae were used. The susceptibility of these microorganisms to Chain peptides were determined using micro broth dilution assay. Colonies of the respective microorganism from Muller Hinton (MH) agar plates incubated overnight were suspended in MH broth media and final concentration of microorganism was adjusted to 5.0×10^5 cfu/ml. An aliquot of 10 μl of each Chain peptide, or gentamicin, tetracycline as reference antibiotics were added in differing concentrations along with 90 μl of bacterial suspension to 96 well polypropylene plates and incubated at 37° C. for 20 to 24 hours. […] Similarly, antifungal MICs were tested in Potato dextrose broth.

Experiment [3] concerns Staphylococcus aureus (ATCC 25923). Nature of the experiment: MIC, micro broth dilution assay. It counts as cell-based. Here is the method:
as §1

Experiment [4] has as its system Pseudomonas aeruginosa (ATCC 27853). Nature of the experiment: MIC, micro broth dilution assay. In kind it is cell-based. As for the experimental part: as §1
In experiment [5] the test system is Klebsiella pneumoniae (ATCC 10031). Nature of the experiment: MIC, micro broth dilution assay. It counts as cell-based. As for the experimental part: as §1
Experiment [6] concerns Escherichia coli (ATCC 25922), Staphylococcus aureus (ATCC 25923), Klebsiella pneumoniae (ATCC 10031) and Pseudomonas aeruginosa (ATCC 27853). Nature of the experiment: Radial diffusion assay, four ATCC bacterial strains together. Particulars: Gentamicin 5 μg. In kind it is cell-based. As for the experimental part:
The radial diffusion assay (RDA) was carried out as described by Andersen et al. (2010). Briefly, 30 ml of 1/10 Muller-Hinton broth (MHB) supplemented with 1% agarose and 5.0×10^5 CFU/ml S. aureus or E. coli or K. pneumoniae, P. aeruginosa cells was poured into a single-well omnitray (Nunc) and overlaid with a TSP 96-well plate. One hundred μg of each synthesized peptide was tested. The peptides were also tested against Fusarium oxysporum and Verticillium dahliae, for which ⅓ potato dextrose agarose was used. To test the synergistic effect of peptides, each peptide was mixed in equimolar concentrations. Mix1 (met1-12), Mix2 (met3, 4 and 5), Mix3 (met 8, 9 and 10), Mix 4 (met11, 12) and Mix5 (8, 9, 10, 11, 12) were prepared and tested against E. coli and S. aureus. Gentamicin and vancomycin were included as positive controls for bacteria and amphotericin B was used as the control for fungi.
By using rational design techniques, we have designed variants of peptides by incorporating or replacing various amino acids in the original peptides. Thus, we have designed and modified Chain 100, Chain 200 and Chain 300 with tryptophan (W), arginine (R) and lysine (K) at various positions to improve antimicrobial activity (FIGS. 4a-c and 5a-c). In some peptides we have also used other amino acids such as Leucine (L), Cysteine (C), Isoleucine (I), Phenylalanine (F) and Alanine (A). […]

Where a SMILES comes first, the peptide text is derived from it. [ ]: non-standard residue; d: D form. Where only a bound is given, the exact number is not on record here.

For `CC(C)C[C@@H](NC(=O)[C@H](N)CCCNC(=N)N)C(=O)N[C@H](CCCCN)C(=O)N[C@H](CCCNC(=N)N)C(=O)N[C@H](Cc1c[nH]c2ccccc12)C(=O)N[C@H](CCCNC(=N)N)C(=O)N[C@H](CC(C)C)C(=O)N[C@H](Cc1ccccc1)C(=O)N[C@H](CCCNC(=N)N)C(=O)N[C@H](CCCCN)C(=O)N[C@H](CCCNC(=N)N)C(=O)O` [Chain306D] (H-[dR][dL][dK][dR][dW][dR][dL][dF][dR][dK][dR]-OH), the “activity for the rest of the bacterial strains” value in experiment [1] is greater than 32 µg/mL.
Turning to `CC(C)C[C@@H](NC(=O)[C@@H](CCCCN)NC(=O)[C@@H](CCCCN)NC(=O)[C@@H](Cc1ccccc1)NC(=O)[C@@H](CC(C)C)NC(=O)[C@@H](Cc1c[nH]c2ccccc12)NC(=O)[C@@H](CCCNC(=N)N)NC(=O)[C@@H](Cc1c[nH]c2ccccc12)NC(=O)[C@@H](CCCCN)NC(=O)[C@@H](CCCNC(=N)N)NC(=O)[C@H](N)CCCCN)C(=O)O` [Chain310D] (H-[dK][dR][dK][dW][dR][dW][dL][dF][dK][dK][dL]-OH), the “MIC against the MRSA strains along with Ertapenem” value in the experiment on MRSA strains worked out at 0.03 mg/L.
For the compound Gentamicin [reference compound], in experiment [2], the “Minimum inhibitory concentration, Escherichia coli (ATCC 25922)” value came to 1 mg/L. The “Minimum inhibitory concentration, Staphylococcus aureus (ATCC 25923)” value in experiment [3] was 0.25 mg/L. Also, the “Minimum inhibitory concentration, Pseudomonas aeruginosa (ATCC 27853)” value in experiment [4] turned out to be 0.25 mg/L. Further, the “Minimum inhibitory concentration, Klebsiella pneumoniae (ATCC 10031)” value in experiment [5] was 0.25 mg/L. Also, in experiment [6], the “zone of inhibition, four ATCC strains” value is recorded as 22-24 mm.
